Laboratory results published in patent US10975056B2 (GlaxoSmithKline Intellectual Property Development Limited, priority 2016, dated 2021).
Several values for one entry are separate records, joined by “and”; a condition that tells them apart may be missing. Equal entries are not always repeated. Structures can show the parent of a compound that is named as a salt. Where two headings read alike, the source gives them in different places.

How the values were obtained:
[1] = test system: erythroid progenitor cells (EPCs); experiment: Fetal hemoglobin (HbF) ELISA in day 7 erythroid progenitor cells; type: cell-based, human; settings: Homo sapiens, Erythroid progenitor cell, HbF ELISA, day 7 EPCs, 5 days; read-out: EPC ELISA (pEC50 category) (converted);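 also: for fetal hemoglobin induction normalized to vehicle-treated cells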
How it was run: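 Read-out was OD450 from an HRP/TMB sandwich ELISA on lysates, normalized to DMSO-only control wells. Thawed day 7 EPCs from human marrow CD34+ cells had been treated for 5 days at 37° C with Compound A, 22 concentrations […].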

[2] = biological target: DNMT1 (Homo sapiens, UniProt P26358); experiment: DNMT1 biochemical activity, breaklight assay and/or SPA assay
[3] = binned activity in either the breaklight or the SPA assay, read-out: DNMT1 BioChemical (pIC50 category) (converted)
[4] = binned activity in either the breaklight or the SPA assay

Sequence of DNMT1 (P26358 whole entry, looked up): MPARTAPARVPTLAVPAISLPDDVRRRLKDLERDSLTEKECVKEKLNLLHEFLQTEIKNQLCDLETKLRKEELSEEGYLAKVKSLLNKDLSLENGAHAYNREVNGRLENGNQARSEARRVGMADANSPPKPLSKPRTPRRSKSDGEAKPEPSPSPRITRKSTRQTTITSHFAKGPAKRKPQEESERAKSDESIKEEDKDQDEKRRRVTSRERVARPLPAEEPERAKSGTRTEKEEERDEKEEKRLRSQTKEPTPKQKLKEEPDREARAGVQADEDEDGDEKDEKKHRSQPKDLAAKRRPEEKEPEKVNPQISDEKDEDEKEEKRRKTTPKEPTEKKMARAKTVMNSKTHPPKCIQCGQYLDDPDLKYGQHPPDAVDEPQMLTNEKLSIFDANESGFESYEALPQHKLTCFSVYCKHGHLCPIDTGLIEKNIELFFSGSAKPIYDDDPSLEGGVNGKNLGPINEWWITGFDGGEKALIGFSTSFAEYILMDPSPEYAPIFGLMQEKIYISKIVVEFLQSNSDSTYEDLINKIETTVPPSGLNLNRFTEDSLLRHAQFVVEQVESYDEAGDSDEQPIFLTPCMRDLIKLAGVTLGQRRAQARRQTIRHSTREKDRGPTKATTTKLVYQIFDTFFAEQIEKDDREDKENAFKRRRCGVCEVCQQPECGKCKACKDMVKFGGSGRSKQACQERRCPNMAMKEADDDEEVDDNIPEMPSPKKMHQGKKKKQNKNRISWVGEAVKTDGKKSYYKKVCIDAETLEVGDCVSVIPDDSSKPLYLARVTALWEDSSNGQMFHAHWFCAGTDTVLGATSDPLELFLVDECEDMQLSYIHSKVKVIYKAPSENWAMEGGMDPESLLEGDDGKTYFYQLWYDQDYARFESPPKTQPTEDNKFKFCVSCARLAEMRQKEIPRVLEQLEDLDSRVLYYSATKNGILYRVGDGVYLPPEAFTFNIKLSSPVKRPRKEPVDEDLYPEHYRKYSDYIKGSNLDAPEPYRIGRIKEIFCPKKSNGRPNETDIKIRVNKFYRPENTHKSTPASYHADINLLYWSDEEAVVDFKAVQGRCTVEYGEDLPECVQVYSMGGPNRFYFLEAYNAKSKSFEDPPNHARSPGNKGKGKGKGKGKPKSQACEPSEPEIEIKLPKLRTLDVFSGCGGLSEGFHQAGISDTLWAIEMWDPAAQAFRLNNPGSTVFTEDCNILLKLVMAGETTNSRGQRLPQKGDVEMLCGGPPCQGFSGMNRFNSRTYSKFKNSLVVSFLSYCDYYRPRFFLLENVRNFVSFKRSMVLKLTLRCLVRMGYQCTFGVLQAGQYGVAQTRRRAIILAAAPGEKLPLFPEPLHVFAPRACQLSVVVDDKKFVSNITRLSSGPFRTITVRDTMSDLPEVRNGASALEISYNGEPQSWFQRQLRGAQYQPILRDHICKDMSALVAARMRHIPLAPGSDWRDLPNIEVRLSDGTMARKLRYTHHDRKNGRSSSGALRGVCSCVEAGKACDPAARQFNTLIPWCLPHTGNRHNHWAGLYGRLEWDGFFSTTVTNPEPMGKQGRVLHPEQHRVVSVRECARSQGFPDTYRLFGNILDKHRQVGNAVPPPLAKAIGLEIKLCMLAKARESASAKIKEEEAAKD

| EC50 [1] | IC50 [2, 3] | DNMT1 BioChemical (pIC50 category) [2, 4] | SMILES | further results |
| --- | --- | --- | --- | --- |
| 316 to 1000 nM | 316 to 1000 nM |  | CCc1c(C#N)c(SC(C(N)=O)c2cccc(F)c2F)nc(N2CC[C@H](O)C2)c1C#N (stereo partly drawn) [Example 429] |  |
| 316 to 1000 nM |  | D (Category D: ≥6.5) | CSc1c(C#N)c(SCc2ccc(CNC(C)=O)cc2)nc(N2CCCN(C)CC2)c1C#N [Example 101, N-(4-(((3,5-Dicyano-6-(4-methyl-1,4-diazepan-1-yl)-4-(methylthio)pyridin-2-yl)thio)methyl)benzyl)acetamide] |  |
| 316 to 1000 nM | 316 to 1000 nM |  | CCc1c(C#N)c(SC(C(N)=O)c2ccccc2)nc(N2CCN(Cc3cnsc3)CC2)c1C#N (stereo not drawn) [Example 197, 2-((3,5-Dicyano-4-ethyl-6-(4-(isothiazol-4-ylmethyl)piperazin-1-yl)pyridin-2-yl)thio)-2-phenylacetamide] |  |
| < 316 nM |  | D (Category D: ≥6.5) | CCc1c(C#N)c(SC(C(N)=O)c2ccccc2)nc(N(C)Cc2ncc[nH]2)c1C#N (stereo not drawn) [Example 364, 2-((6-(((1H-Imidazol-2-yl)methyl)(methyl)amino)-3,5-dicyano-4-ethylpyridin-2-yl)thio)-2-phenylacetamide] |  |
| 316 to 1000 nM |  | D (Category D: ≥6.5) | COc1c(C#N)c(SC(C(N)=O)c2ccccc2)nc(N2CCCN(CCO)CC2)c1C#N (stereo not drawn) [Example 142, 2-((3,5-Dicyano-6-(4-(2-hydroxyethyl)-1,4-diazepan-1-yl)-4-methoxypyridin-2-yl)thio)-2-phenylacetamide] |  |
| < 316 nM | 316 to 1000 nM |  | CCc1c(C#N)c(SC(C(N)=O)c2ncccc2F)nc(N2CCCN(C)CC2)c1C#N (stereo not drawn) [Example 220, 2-((3,5-Dicyano-4-ethyl-6-(4-methyl-1,4-diazepan-1-yl)pyridin-2-yl)thio)-2-(3-fluoropyridin-2-yl) acetamide] |  |
| 1000 to 31600 nM |  | D (Category D: ≥6.5) | CCc1c(C#N)c(SC(C(N)=O)c2ccccc2)nc(N2CCC[C@H](NCC(F)F)C2)c1C#N (stereo partly drawn) [Example 690, 2-((3,5-dicyano-6-((S)-3-((2,2-difluoroethyl)amino)piperidin-1-yl)-4-ethylpyridin-2-yl)thio)-2-phenylacetamide] |  |
| 1000 to 31600 nM |  | D (Category D: ≥6.5) | CCc1c(C#N)c(SC(C(N)=O)c2ccc(CC(N)=O)cc2)nc(N(C)C)c1C#N (stereo not drawn) [Example 401, 2-(4-(2-Amino-2-oxoethyl)phenyl)-2-(3,5-dicyano-6-(dimethylamino)-4-ethylpyridin-2-ylthio)acetamide] |  |
| > 31600 nM | 316 to 1000 nM |  | CCc1c(Cl)c(SC(C(N)=O)c2ccccc2)nc(N2CCCN(C)CC2)c1Cl (stereo not drawn) [Example 165] | IC50 ([2]; breaklight assay and/or SPA assay, repeated experimental runs, read-out: average pIC50 against DNMT1 (converted)): 316 to 1000 nM and 631 nM |
| < 316 nM |  | D (Category D: ≥6.5) | CCc1c(C#N)c(SC(C(N)=O)c2ccccc2)nc(N(C)CCN2CCCCC2)c1C#N (stereo not drawn) [Example 478, 2-((3,5-dicyano-4-ethyl-6-(methyl(2-(piperidin-1-yl)ethyl)amino)pyridin-2-yl)thio)-2-phenylacetamide] |  |
| 1000 to 31600 nM | 316 to 1000 nM |  | CCc1c(C#N)c(SC(C(N)=O)c2ccccc2)nc(N2CCC3(CC2)COC(=O)N3)c1C#N (stereo not drawn) [Example 241, 2-((3,5-Dicyano-4-ethyl-6-(2-oxo-3-oxa-1,8-diazaspiro[4.5]decan-8-yl)pyridin-2-yl)thio)-2-phenylacetamide] |  |
| 1000 to 31600 nM | 1000 to 31600 nM |  | CCc1c(C#N)c(SCc2ccc(CN3CCCC3=O)cc2)nc(N2CCCN(C)CC2)c1C#N [Example 269, 4-Ethyl-2-(4-methyl-1,4-diazepan-1-yl)-6-((4-((2-oxopyrrolidin-1-yl)methyl)benzyl)thio)pyridine-3,5-dicarbonitrile] |  |
| < 316 nM |  | D (Category D: ≥6.5) | CCc1c(C#N)c(SC(C(N)=O)c2ccccc2)nc(N(C)CCNC2(C)CC2)c1C#N (stereo not drawn) [Example 489, 2-(3,5-dicyano-4-ethyl-6-(methyl(2-(1-methylcyclopropylamino)ethyl)amino)pyridin-2-ylthio)-2-phenylacetamide] |  |
| 1000 to 31600 nM |  | D (Category D: ≥6.5) | CCc1c(C#N)c(SC(C(N)=O)c2ccccc2F)nc(N2CC[C@H](O)C2)c1C#N (stereo partly drawn) [Example 682, 2-((3,5-dicyano-4-ethyl-6-((S)-3-hydroxypyrrolidin-1-yl)pyridin-2-yl)thio)-2-(2-fluorophenyl)acetamide] |  |
| < 316 nM |  | D (Category D: ≥6.5) | CCc1c(C#N)c(SC(C(N)=O)c2ccccc2)nc(N2CCC(NC3CC3)CC2)c1C#N (stereo not drawn) [Example 552, 2-((3,5-dicyano-6-(4-(cyclopropylamino)piperidin-1-yl)-4-ethylpyridin-2-yl)thio)-2-phenylacetamide] |  |
| 316 to 1000 nM |  | D (Category D: ≥6.5) | CCc1c(C#N)c(SC(C(N)=O)c2ccc(F)cc2)nc(N(C)C)c1C#N (stereo not drawn) [Example 198, 2-((3,5-Dicyano-6-(dimethylamino)-4-ethylpyridin-2-yl)thio)-2-(4-fluorophenyl)acetamide] |  |
| < 316 nM |  | D (Category D: ≥6.5) | CCc1c(C#N)c(SC(C(N)=O)c2ccccc2)nc(N(C)CCN2CCC[C@H]2C)c1C#N (stereo partly drawn) [Example 459, 2-((3,5-dicyano-4-ethyl-6-(methyl(2-((R)-2-methylpyrrolidin-1-yl)ethyl)amino)pyridin-2-yl)thio)-2-phenylacetamide] |  |
| < 316 nM |  | D (Category D: ≥6.5) | CCc1c(C#N)c(SC(C(N)=O)c2ccccc2)nc(N2CCC(NC(=O)C(C)(C)N)CC2)c1C#N (stereo not drawn) [Example 148] | average pIC50 against DNMT1 ([2]; breaklight assay and/or SPA assay, repeated experimental runs): > 6.5 |
| 1000 to 31600 nM | 316 to 1000 nM |  | CCc1c(C#N)c(SC(C(N)=O)c2ccccc2)nc(N(C)Cc2cnc[nH]2)c1C#N (stereo not drawn) [Example 365] |  |
| 316 to 1000 nM |  | D (Category D: ≥6.5) | CCc1c(C#N)c(S[C@@H](C(N)=O)c2ccccc2)nc(N2CC[C@@H](NC(=O)OC(C)(C)C)[C@H](O)C2)c1C#N [Example 542, tert-butyl((3R,4R)-1-(6-(((R)-2-amino-2-oxo-1-phenylethyl)thio)-3,5-dicyano-4-ethylpyridin-2-yl)-3-hydroxypiperidin-4-yl)carbamate*] |  |
| 1000 to 31600 nM | 316 to 1000 nM |  | CCc1c(C#N)c(SC(C(N)=O)c2ccccc2)nc(N2CCN(Cc3ccon3)CC2)c1C#N (stereo not drawn) [Example 183, 2-((3,5-Dicyano-4-ethyl-6-(4-(isoxazol-3-ylmethyl)piperazin-1-yl)pyridin-2-yl)thio)-2-phenylacetamide] |  |
| < 316 nM |  | D (Category D: ≥6.5) | CCc1c(C#N)c(SC(C(N)=O)c2ccccc2)nc(N2CCC[C@@H](NC)C2)c1C#N (stereo partly drawn) [Example 636, 2-((3,5-dicyano-4-ethyl-6-((R)-3-(methylamino)piperidin-1-yl)pyridin-2-yl)thio)-2-phenylacetamide] |  |
| > 31600 nM | 316 to 1000 nM |  | CCOc1c(C#N)c(C)nc(SC(C(N)=O)c2ccccc2)c1C#N (stereo not drawn) [Example 342, 2-((3,5-Dicyano-4-ethoxy-6-methylpyridin-2-yl)thio)-2-phenylacetamide] |  |
| > 31600 nM | 316 to 1000 nM |  | CCc1c(C#N)c(SC(C(N)=O)c2ccnc(C)c2)nc(N2CCCN(C)CC2)c1C#N (stereo not drawn) [Example 246, 2-((3,5-Dicyano-4-ethyl-6-(4-methyl-1,4-diazepan-1-yl)pyridin-2-yl)thio)-2-(2-methylpyridin-4-yl)acetamide] |  |
| < 316 nM |  | D (Category D: ≥6.5) | CCc1c(C#N)c(SC(C(N)=O)c2ccccc2)nc(N2CCC(N)C(F)(F)C2)c1C#N (stereo not drawn) [Example 382, 2-((6-(4-Amino-3,3-difluoropiperidin-1-yl)-3,5-dicyano-4-ethylpyridin-2-yl)thio)-2-phenylacetamide] |  |

| SMILES | EC50 [1] | IC50 [2, 3] | DNMT1 BioChemical (pIC50 category) [2, 4] | further results |
| --- | --- | --- | --- | --- |
| CCc1c(C#N)c(SC(C(N)=O)c2ccccc2)nc(N2CCN(C(=O)C3(N)COC3)CC2)c1C#N (stereo not drawn) [Example 139, 2-((6-(4-(3-Aminooxetane-3-carbonyl)piperazin-1-yl)-3,5-dicyano-4-ethylpyridin-2-yl)thio)-2-phenylacetamide, Formic Acid Salt] | 316 to 1000 nM |  | D (Category D: ≥6.5) |  |
| CCc1c(C#N)c(SC(C(N)=O)c2ccc(F)cc2)nc(N2CCC(N(C)C)CC2)c1C#N (stereo not drawn) [Example 207, 2-((3,5-Dicyano-6-(4-(dimethylamino)piperidin-1-yl)-4-ethylpyridin-2-yl)thio)-2-(4-fluorophenyl)acetamide] | < 316 nM | 316 to 1000 nM |  |  |
| CCc1c(Cl)c(SC(C(N)=O)c2ccccc2)nc(N2CCNCC2)c1Cl (stereo not drawn) [Example 324, 2-((3,5-Dichloro-4-ethyl-6-(piperazin-1-yl)pyridin-2-yl)thio)-2-phenylacetamide] | > 31600 nM |  |  | IC50 ([2]; DNMT1 BioChemical (pIC50 category), binned activity in either the breaklight or the SPA assay): 316 to 1000 nM; IC50 ([2]; average pIC50 against DNMT1, breaklight assay and/or SPA assay, repeated experimental runs): 316 to 1000 nM and 631 nM |
| CCc1c(C#N)c(SCc2ccc(CNC(C)=O)cc2)nc(N2CCC(N3CCCC3)CC2)c1C#N [Example 66, N-(4-((3,5-Dicyano-4-ethyl-6-(4-(pyrrolidin-1-yl)piperidin-1-yl)pyridin-2-ylthio)methyl)benzyl)acetamide trifluoroacetate] | < 316 nM |  | D (Category D: ≥6.5) |  |
| CCc1c(C#N)c(S[C@@H](C(N)=O)c2ccccc2)nc(N2CC[C@@H](N)[C@@H](F)C2)c1C#N [Example 506, (R)-2-((6-((3S,4R)-4-amino-3-fluoropiperidin-1-yl)-3,5-dicyano-4-ethylpyridin-2-yl)thio)-2-phenylacetamide 2,2,2-trifluoroacetate] | < 316 nM |  | D (Category D: ≥6.5) |  |
